From US8609635B2, “Fused tricyclic silyl compounds and methods of use thereof for the treatment of viral diseases” (priority 2010, dated 2013)

Assays:
[1] = tested on: HCV replicon gt1a_H77; experiment: Cell-based HCV replicon assay (TaqMan), genotype 1a (H77); settings: Hepatitis C virus, 72 h, replicon 1a (H77); replicon RNA by TaqMan, day 3
Description: (§1) Measurement of inhibition by compounds of the present invention was performed using the HCV replicon system. Several different replicons encoding different HCV genotypes or mutations were used. In addition, potency measurements were made using different formats of the replicon assay, including different ways of measurements and different plating formats. See Jan M. Vrolijk et al., A replicons-based bioassay for the measurement of interferons in patients with chronic hepatitis C, 110 J. VIROLOGICAL METHODS 201 (2003); Steven S. Carroll et al., Inhibition of Hepatitis C Virus RNA Replication by 2′-Modified Nucleoside Analogs, 278(14) J. BIOLOGICAL […] 11979 (2003). However, the underlying principles are common to all of these determinations, and are outlined below.
(§2) Compounds of the present invention were assayed for cell-based anti-HCV activity using the following protocol. Replicon cells were seeded at 5000 cells/well in 96-well collagen I-coated Nunc plates in the presence of the test compound. Various concentrations of test compound, typically in 10 serial 2-fold dilutions, were added to the assay mixture, with the starting concentration ranging from 250 μM to 1 μM. The final concentration of DMSO was 0.5%, fetal bovine serum was 5%, in the assay media. Cells were harvested on day 3 by the addition of 1× cell lysis buffer (Ambion cat #8721). The replicon RNA level was measured using real time PCR (TaqMan® assay). The amplicon was located in 5B. The PCR primers were: 5B.2F, […] (SEQ. ID NO. 1); 5B.2R, […] (SEQ. ID NO. 2); the probe sequence was FAM-labeled […] (SEQ. ID NO. 3). GAPDH RNA was used as endogenous control and was amplified in the same reaction as NS5B (multiplex PCR) using primers and VIC-labeled probe recommended by the manufacturer (PE Applied Biosystem). The real-time RT-PCR reactions were run on ABI PRISM 7900HT Sequence Detection System using the following program: 48° C. for 30 minutes, 95° C. for 10 minutes, 40 cycles of 95° C. for 15 sec, 60° C. for 1 minute. The ΔCT values (CT5B-CTGAPDH) were plotted against the concentration of test compound and fitted to the sigmoid dose-response model using XLfit4 (MDL). […] Alternatively, to quantitate the absolute amount of replicon RNA, a standard curve was established by including serially diluted T7 transcripts of replicon RNA in the Taqman assay. All TaqMan® reagents were from PE Applied Biosystems. Such an assay procedure was described in detail in e.g. Malcolm et al., Antimicrobial Agents and Chemotherapy 50: 1013-1020 (2006).
(§3) Wherein gt1a_H77 was prepared as described in Yi et al., J Virol. 2004, 78(15):7904-15; gt1b_con1 was prepared as described in Lohmann et al., Science 1999, 285(5424):110-3; and gt2a_JFH was prepared as described in Kato et al., Gastroenterology. 2003, 125(6):1808-17. Chimeric replicons contain NS5A from patient isolates of genotypes 1a, 1b, 2b, 3a and 4a as indicated.

[2] = tested on: HCV replicon gt1b_con1; experiment: Cell-based HCV replicon assay (TaqMan), genotype 1b (Con1); settings: Hepatitis C virus, 72 h; replicon 1b (Con1); replicon RNA by TaqMan, day 3
Description: as §1, §2, §3

[3] = tested on: HCV replicon gt2a_JFH; experiment: Cell-based HCV replicon assay (TaqMan), genotype 2a (JFH); settings: Hepatitis C virus, 72 h, replicon 2a (JFH); replicon RNA by TaqMan, day 3
Description: as §1, §2, §3

[4] = tested on: HCV chimeric replicon with NS5A of genotype 3a (NC00982); experiment: Cell-based HCV replicon assay (TaqMan), chimeric replicon genotype 3a (NC00982); settings: Hepatitis C virus, 72 h, read-out: HCV replicon EC50 3a (NC00982), chimeric replicon 3a (NC00982); replicon RNA by TaqMan, day 3
Description: as §1, §2, §3

[5] = tested on: HCV chimeric replicon with NS5A of genotype 4a (DQ41878); experiment: Cell-based HCV replicon assay (TaqMan), chimeric replicon genotype 4a (DQ41878); settings: Hepatitis C virus, 72 h, read-out: HCV replicon EC50 4a (DQ41878)
Description: as §1, §2, §3

[6] = tested on: HCV replicon 1a (Y93H) mutant; experiment: Cell-based HCV replicon assay (TaqMan), genotype 1a mutant Y93H; settings: Hepatitis C virus, 72 h, read-out: HCV replicon EC50 1a (Y93H)
Description: as §1, §2, §3

[7] = tested on: HCV replicon 1a (L31V) mutant; experiment: Cell-based HCV replicon assay (TaqMan), genotype 1a mutant L31V; settings: Hepatitis C virus, 72 h, read-out: HCV replicon EC50 1a (L31V)
Description: as §1, §2, §3

COC(=O)N[C@H](C(=O)N1C[Si](C)(C)C[C@H]1c1ncc(-c2ccc(-c3ccc4c(ccc5nc([C@@H]6CC(F)CN6C(=O)[C@@H](NC(=O)OC)C(C)C)[nH]c54)c3)cc2)[nH]1)C(C)C (stereo partly drawn) [Compound 53]
EC50 [1]: 0.016 nM
EC50 [2]: 0.003 nM
EC50 [3]: 0.026 nM
EC50 [4]: 0.09 nM
EC50 [5]: 0.1 nM
EC50 [6]: 10 nM
EC50 [7]: 64 nM

COC(=O)N[C@H](C(=O)N1CC(F)C[C@H]1c1ncc(-c2ccc(-c3ccc4c(ccc5nc([C@@H]6C[Si](C)(C)CN6C(=O)[C@@H](NC(=O)OC)C(C)C)[nH]c54)c3)cc2)[nH]1)C(C)C (stereo partly drawn) [Compound 55]
EC50 [1]: 0.07 nM
EC50 [2]: 0.006 nM
EC50 [3]: 0.15 nM
EC50 [4]: 0.8 nM
EC50 [5]: 0.35 nM
EC50 [6]: 27 nM
EC50 [7]: 62 nM

COC(=O)N[C@H](C(=O)N1C[Si]2(CCCC2)C[C@H]1c1ncc(-c2ccc(-c3ccc4c(ccc5nc([C@@H]6CCCN6C(=O)[C@@H](NC(=O)OC)C(C)C)[nH]c54)c3)cc2)[nH]1)C(C)C [Compound 61]
EC50 [1]: 0.06 nM
EC50 [2]: 0.005 nM
EC50 [3]: 0.005 nM
EC50 [4]: 0.2 nM
EC50 [5]: 0.076 nM
EC50 [6]: 350 nM

COC(=O)N[C@H](C(=O)N1CCS(=O)(=O)CC1c1ncc(-c2ccc(-c3ccc4c(ccc5nc([C@@H]6C[Si](C)(C)CN6C(=O)[C@@H](NC(=O)OC)C(C)C)[nH]c54)c3)cc2)[nH]1)C(C)C (stereo partly drawn) [Compound 67]
EC50 [1]: 0.19 nM
EC50 [2]: 0.011 nM
EC50 [3]: 0.16 nM
EC50 [4]: 5 nM
EC50 [5]: 0.5 nM
EC50 [6]: 380 nM

COC(=O)N[C@H](C(=O)N1CC(F)(F)C[C@H]1c1nc2ccc3cc(-c4ccc5c(ccc6nc([C@@H]7C[Si](C)(C)CN7C(=O)[C@@H](NC(=O)OC)C(C)C)[nH]c65)c4)ccc3c2[nH]1)C(C)C [Compound 70]
EC50 [1]: 0.012 nM
EC50 [2]: 0.007 nM
EC50 [3]: 0.04 nM
EC50 [4]: 0.118 nM
EC50 [5]: 0.077 nM
EC50 [6]: 25 nM

COC(=O)N[C@H](C(=O)N1CC(C)(C)C[C@H]1c1ncc(-c2ccc(-c3ccc4c(ccc5nc([C@@H]6C[Si](C)(C)CN6C(=O)[C@@H](NC(=O)OC)C(C)C)[nH]c54)c3)cc2)[nH]1)C(C)C [Compound 78]
EC50 [1]: 0.015 nM
EC50 [2]: 0.001 nM
EC50 [3]: 0.04 nM
EC50 [4]: 0.26 nM
EC50 [5]: 0.137 nM
EC50 [6]: 90 nM

COC(=O)N[C@H](C(=O)N1C[Si](C)(C)C[C@@H]1c1nc2ccc3cc(-c4ccc(-c5cnc([C@@H]6CC(C)(C)CN6C(=O)[C@@H](NC(=O)OC)C(C)C)[nH]5)cc4)ccc3c2[nH]1)C(C)C [Compound 79]
EC50 [1]: 0.127 nM
EC50 [2]: 0.012 nM
EC50 [3]: 0.315 nM
EC50 [4]: 4.4 nM
EC50 [5]: 0.45 nM
EC50 [6]: 351 nM

CC(C)[C@H](NC(=O)OC1(C)CC1)C(=O)N1CC(C)(C)C[C@H]1c1ncc(-c2ccc(-c3ccc4c(ccc5nc([C@@H]6C[Si](C)(C)CN6C(=O)[C@@H](NC(=O)OC6(C)CC6)C(C)C)[nH]c54)c3)cc2)[nH]1 [Compound 80]
EC50 [1]: > 1 nM
EC50 [2]: > 1 nM
EC50 [3]: > 10 nM
EC50 [4]: > 100 nM
EC50 [5]: > 100 nM
EC50 [6]: > 1000 nM

COC(=O)N[C@H](C(=O)N1C[Si](C)(C)C[C@H]1c1nc2ccc3cc(-c4ccc(-c5cnc([C@@H]6CCCN6C(=O)[C@@H](NC(=O)OC)C67CC(C(F)(F)F)(C6)C7)[nH]5)cc4)ccc3c2[nH]1)C(C)C [Compound 81]
EC50 [1]: 0.94 nM
EC50 [2]: 0.012 nM
EC50 [3]: 0.712 nM
EC50 [4]: 9.69 nM
EC50 [5]: > 10 nM
EC50 [6]: > 1000 nM
EC50 [7]: > 100 nM

CC(C)[C@H](NC(=O)OC1(C)CC1)C(=O)N1C[Si](C)(C)C[C@@H]1c1ncc(-c2ccc(-c3ccc4c(ccc5nc([C@H]6C[C@H](F)CN6C(=O)[C@@H](NC(=O)OC6(C)CC6)C(C)C)[nH]c54)c3)c(F)c2)[nH]1 [Compound 83]
EC50 [1]: > 1 nM
EC50 [2]: 52 nM
EC50 [3]: > 10 nM
EC50 [4]: > 100 nM
EC50 [5]: > 100 nM
EC50 [6]: > 1000 nM

CC(C)OC(=O)N[C@H](C(=O)N1C[Si](C)(C)C[C@@H]1c1ncc(-c2ccc(-c3ccc4c(ccc5nc([C@H]6C[C@H](F)CN6C(=O)[C@@H](NC(=O)OC(C)C)C(C)C)[nH]c54)c3)c(F)c2)[nH]1)C(C)C [Compound 84]
EC50 [1]: > 1 nM
EC50 [2]: 2.4 nM
EC50 [3]: > 10 nM
EC50 [4]: > 100 nM
EC50 [5]: > 100 nM
EC50 [6]: > 1000 nM

COC(=O)N[C@H](C(=O)N1CCC(F)(F)C[C@H]1c1ncc(-c2ccc(-c3ccc4c(ccc5nc([C@@H]6C[Si](C)(C)CN6C(=O)[C@@H](NC(=O)OC)C(C)C)[nH]c54)c3)cc2)[nH]1)C(C)C [Compound 85]
EC50 [1]: 0.102 nM
EC50 [2]: 0.009 nM
EC50 [3]: 0.065 nM
EC50 [4]: 0.69 nM
EC50 [5]: 1.16 nM
EC50 [6]: 728 nM
EC50 [7]: 89 nM

CC(C)[C@H](NC(=O)OC1(C)CC1)C(=O)N1CCC(F)(F)C[C@H]1c1ncc(-c2ccc(-c3ccc4c(ccc5nc([C@@H]6C[Si](C)(C)CN6C(=O)[C@@H](NC(=O)OC6(C)CC6)C(C)C)[nH]c54)c3)cc2)[nH]1 [Compound 86]
EC50 [1]: > 1 nM
EC50 [2]: 141 nM
EC50 [3]: > 10 nM
EC50 [4]: > 100 nM
EC50 [5]: > 100 nM
EC50 [6]: > 1000 nM
EC50 [7]: > 1000 nM

COCCOC(=O)N[C@H](C(=O)N1CCC(F)(F)C[C@H]1c1ncc(-c2ccc(-c3ccc4c(ccc5nc([C@@H]6C[Si](C)(C)CN6C(=O)[C@@H](NC(=O)OCCOC)C(C)C)[nH]c54)c3)cc2)[nH]1)C(C)C [Compound 87]
EC50 [1]: > 1 nM
EC50 [2]: 2.5 nM
EC50 [3]: > 10 nM
EC50 [4]: > 100 nM
EC50 [5]: > 100 nM
EC50 [6]: > 1000 nM
EC50 [7]: > 1000 nM

CC(C)OC(=O)N[C@H](C(=O)N1CCC(F)(F)C[C@H]1c1ncc(-c2ccc(-c3ccc4c(ccc5nc([C@@H]6C[Si](C)(C)CN6C(=O)[C@@H](NC(=O)OC(C)C)C(C)C)[nH]c54)c3)cc2)[nH]1)C(C)C [Compound 88]
EC50 [1]: > 1 nM
EC50 [2]: 4 nM
EC50 [3]: > 10 nM
EC50 [4]: > 100 nM
EC50 [5]: > 100 nM
EC50 [6]: > 1000 nM
EC50 [7]: > 1000 nM

COC(=O)N[C@H](C(=O)N1C[Si]2(CCCC2)C[C@H]1c1ncc(-c2ccc(-c3ccc4c(ccc5nc([C@@H]6CC(F)(F)CN6C(=O)[C@@H](NC(=O)OC)C(C)C)[nH]c54)c3)cc2)[nH]1)C(C)C [Compound 89]
EC50 [1]: 0.054 nM
EC50 [2]: 0.006 nM
EC50 [3]: 0.5 nM
EC50 [4]: 0.275 nM
EC50 [5]: 0.035 nM
EC50 [6]: 211 nM

COC(=O)N[C@H](C(=O)N1CC[C@H](C)[C@H]1c1nc2ccc3cc(-c4ccc(-c5cnc([C@@H]6C[Si](C)(C)CN6C(=O)[C@@H](NC(=O)OC)C(C)C)[nH]5)cc4)ccc3c2[nH]1)C(C)C [Compound 95]
EC50 [1]: > 0.1 nM
EC50 [2]: 0.015 nM
EC50 [3]: 0.032 nM
EC50 [4]: 0.066 nM
EC50 [5]: 1.22 nM
EC50 [6]: 210 nM
EC50 [7]: 9 nM

COC(=O)N[C@H](C(=O)N1C[Si](C)(C)C[C@H]1c1nc2ccc3cc(-c4ccc(-c5cnc([C@@H]6[C@@H]7C[C@@H]([C@@H](F)[C@H]7F)N6C(=O)[C@@H](NC(=O)OC)C(C)C)[nH]5)cc4)ccc3c2[nH]1)C(C)C [Compound 100]
EC50 [1]: 0.043 nM
EC50 [2]: 0.002 nM
EC50 [3]: 0.023 nM
EC50 [4]: 7.4 nM
EC50 [5]: < 0.2 nM
EC50 [6]: 204 nM
EC50 [7]: 117 nM
